# From ChEMBL document CHEMBL1149371, “A strategy for the design of selective RNA binding agents. Preparation and RRE RNA binding affinities of a neomycin-peptide nucleic acid heteroconjugate library” (Bioorg Med Chem Lett, 2006)
# How the values were obtained:
# [1] = molecular target: Rev responsive element (RRE) RNA; assay: Binding affinity to Rev response element RNA; type: nucleic-acid assay
# [2] = test system: Rev responsive element (RRE) RNA; assay: Discrimination factor, Kd for tRNA/Kd for Rev response element RNA; type: nucleic-acid assay
# [3] = molecular target: tRNA; assay: Binding affinity to tRNA
# [4] = molecular target: Rev responsive element (RRE) RNA; assay: Inhibition of Rev binding to Rev response element RNA in presence of competitor RNA; type: nucleic-acid assay
# [5] = molecular target: Rev responsive element (RRE) RNA; assay: Inhibition of Rev binding to Rev response element RNA in absence of competitor RNA; type: nucleic-acid assay
# [6] = test system: Rev responsive element (RRE) RNA; assay: Ratio of inhibition of Rev binding to Rev response element RNA in presence to absence of competitor RNA; type: nucleic-acid assay
Structure (SMILES),Kd [1],Ratio [2],Kd [3],further results
Cc1cn(CC(=O)N(CCNC(=O)CSCCCCCCSC[C@H]2O[C@@H](O[C@@H]3[C@@H](O)[C@H](N)C[C@H](N)[C@H]3O[C@H]3O[C@H](CN)[C@@H](O)[C@H](O)[C@H]3N)[C@H](O)[C@@H]2O[C@H]2O[C@@H](CN)[C@@H](O)[C@H](O)[C@H]2N)CC(=O)NCCN(CC(N)=O)C(=O)Cn2ccc(N)nc2=O)c(=O)[nH]c1=O,360 nM,–,–,–
CC(=O)N(CCNC(=O)CSCCCCCCSC[C@H]1O[C@@H](O[C@@H]2[C@@H](O)[C@H](N)C[C@H](N)[C@H]2O[C@H]2O[C@H](CN)[C@@H](O)[C@H](O)[C@H]2N)[C@H](O)[C@@H]1O[C@H]1O[C@@H](CN)[C@@H](O)[C@H](O)[C@H]1N)CC(=O)NCCN(CC(N)=O)C(=O)Cn1cc(C)c(=O)[nH]c1=O,270 nM,–,–,–
NC[C@@H]1O[C@H](O[C@H]2[C@@H](O)[C@H](O[C@@H]3[C@@H](O)[C@H](N)C[C@H](N)[C@H]3O[C@H]3O[C@H](CN)[C@@H](O)[C@H](O)[C@H]3N)O[C@@H]2CSCCCCCCSCC(=O)NCCN(CC(=O)NCCN(CC(N)=O)C(=O)Cn2cnc3c(N)ncnc32)C(=O)Cn2ccc(N)nc2=O)[C@H](N)[C@@H](O)[C@@H]1O,130 nM,–,–,–
Cc1cn(CC(=O)N(CCNC(=O)CSCCCCCCSC[C@H]2O[C@@H](O[C@@H]3[C@@H](O)[C@H](N)C[C@H](N)[C@H]3O[C@H]3O[C@H](CN)[C@@H](O)[C@H](O)[C@H]3N)[C@H](O)[C@@H]2O[C@H]2O[C@@H](CN)[C@@H](O)[C@H](O)[C@H]2N)CC(=O)NCCN(CC(N)=O)C(=O)Cn2cnc3c(N)ncnc32)c(=O)[nH]c1=O,71 nM,3.2,230 nM,–
Cc1cn(CC(=O)N(CCNC(=O)CN(CCNC(=O)CSCCCCCCSC[C@H]2O[C@@H](O[C@@H]3[C@@H](O)[C@H](N)C[C@H](N)[C@H]3O[C@H]3O[C@H](CN)[C@@H](O)[C@H](O)[C@H]3N)[C@H](O)[C@@H]2O[C@H]2O[C@@H](CN)[C@@H](O)[C@H](O)[C@H]2N)C(=O)Cn2ccc(N)nc2=O)CC(N)=O)c(=O)[nH]c1=O,110 nM,–,–,–
NC[C@@H]1O[C@H](O[C@H]2[C@@H](O)[C@H](O[C@@H]3[C@@H](O)[C@H](N)C[C@H](N)[C@H]3O[C@H]3O[C@H](CN)[C@@H](O)[C@H](O)[C@H]3N)O[C@@H]2CO)[C@H](N)[C@@H](O)[C@@H]1O [FRAMYCETIN],180 nM,–,–,–
NC[C@@H]1O[C@H](O[C@H]2[C@@H](O)[C@H](O[C@@H]3[C@@H](O)[C@H](N)C[C@H](N)[C@H]3O[C@H]3O[C@H](CN)[C@@H](O)[C@H](O)[C@H]3N)O[C@@H]2CSCCCCCCSCC(=O)NCCN(CC(=O)NCCN(CC(N)=O)C(=O)Cn2cnc3c(O)nc(N)nc32)C(=O)Cn2cnc3c(O)nc(N)nc32)[C@H](N)[C@@H](O)[C@@H]1O,30 nM,7,210 nM,IC50 [4]: 45000 nM; IC50 [5]: 32000 nM; Ratio [6]: 1.4
NC[C@@H]1O[C@H](O[C@H]2[C@@H](O)[C@H](O[C@@H]3[C@@H](O)[C@H](N)C[C@H](N)[C@H]3O[C@H]3O[C@H](CN)[C@@H](O)[C@H](O)[C@H]3N)O[C@@H]2CSCCNc2c3ccccc3nc3ccccc23)[C@H](N)[C@@H](O)[C@@H]1O,–,–,–,IC50 [4]: 9800 nM; IC50 [5]: 500 nM
NC[C@@H]1O[C@H](O[C@H]2[C@@H](O)[C@H](O[C@@H]3[C@@H](O)[C@H](N)C[C@H](N)[C@H]3O[C@H]3O[C@H](CN)[C@@H](O)[C@H](O)[C@H]3N)O[C@@H]2CSCCCCCCSCC(=O)NCCN(CC(=O)NCCN(CC(N)=O)C(=O)Cn2ccc(N)nc2=O)C(=O)Cn2cnc3c(O)nc(N)nc32)[C@H](N)[C@@H](O)[C@@H]1O,240 nM,–,–,–
NC[C@@H]1O[C@H](O[C@H]2[C@@H](O)[C@H](O[C@@H]3[C@@H](O)[C@H](N)C[C@H](N)[C@H]3O[C@H]3O[C@H](CN)[C@@H](O)[C@H](O)[C@H]3N)O[C@@H]2CSCCCCCCSCC(=O)NCCN(CC(=O)NCCN(CC(N)=O)C(=O)Cn2cnc3c(N)ncnc32)C(=O)Cn2cnc3c(N)ncnc32)[C@H](N)[C@@H](O)[C@@H]1O,58 nM,7.1,410 nM,IC50 [4]: 68000 nM; IC50 [5]: 55000 nM; Ratio [6]: 1.2
CC(=O)N(CCNC(=O)CSCCCCCCSC[C@H]1O[C@@H](O[C@@H]2[C@@H](O)[C@H](N)C[C@H](N)[C@H]2O[C@H]2O[C@H](CN)[C@@H](O)[C@H](O)[C@H]2N)[C@H](O)[C@@H]1O[C@H]1O[C@@H](CN)[C@@H](O)[C@H](O)[C@H]1N)CC(=O)NCCN(CC(N)=O)C(=O)Cn1cnc2c(O)nc(N)nc21,130 nM,–,–,–
Cc1cn(CC(=O)N(CCNC(=O)CN(CCNC(=O)CSCCCCCCSC[C@H]2O[C@@H](O[C@@H]3[C@@H](O)[C@H](N)C[C@H](N)[C@H]3O[C@H]3O[C@H](CN)[C@@H](O)[C@H](O)[C@H]3N)[C@H](O)[C@@H]2O[C@H]2O[C@@H](CN)[C@@H](O)[C@H](O)[C@H]2N)C(=O)Cn2cnc3c(O)nc(N)nc32)CC(N)=O)c(=O)[nH]c1=O,93 nM,2.4,220 nM,–
NC[C@@H]1O[C@H](O[C@H]2[C@@H](O)[C@H](O[C@@H]3[C@@H](O)[C@H](N)C[C@H](N)[C@H]3O[C@H]3O[C@H](CN)[C@@H](O)[C@H](O)[C@H]3N)O[C@@H]2CSCCCCCCSCC(=O)NCCN(CC(=O)NCCN(CC(N)=O)C(=O)Cn2ccc(N)nc2=O)C(=O)Cn2ccc(N)nc2=O)[C@H](N)[C@@H](O)[C@@H]1O,430 nM,–,–,–
Cc1cn(CC(=O)N(CCNC(=O)CN(CCNC(=O)CSCCCCCCSC[C@H]2O[C@@H](O[C@@H]3[C@@H](O)[C@H](N)C[C@H](N)[C@H]3O[C@H]3O[C@H](CN)[C@@H](O)[C@H](O)[C@H]3N)[C@H](O)[C@@H]2O[C@H]2O[C@@H](CN)[C@@H](O)[C@H](O)[C@H]2N)C(=O)Cn2cnc3c(N)ncnc32)CC(N)=O)c(=O)[nH]c1=O,250 nM,–,–,–
NC[C@@H]1O[C@H](O[C@H]2[C@@H](O)[C@H](O[C@@H]3[C@@H](O)[C@H](N)C[C@H](N)[C@H]3O[C@H]3O[C@H](CN)[C@@H](O)[C@H](O)[C@H]3N)O[C@@H]2CSCCCCCCSCC(=O)NCCN(CC(=O)NCCN(CC(N)=O)C(=O)Cn2cnc3c(O)nc(N)nc32)C(=O)Cn2ccc(N)nc2=O)[C@H](N)[C@@H](O)[C@@H]1O,170 nM,–,–,–
NC[C@@H]1O[C@H](O[C@H]2[C@@H](O)[C@H](O[C@@H]3[C@@H](O)[C@H](N)C[C@H](N)[C@H]3O[C@H]3O[C@H](CN)[C@@H](O)[C@H](O)[C@H]3N)O[C@@H]2CSCCCCCCSCC(=O)NCCN(CC(=O)NCCN(CC(N)=O)C(=O)Cn2ccc(N)nc2=O)C(=O)Cn2cnc3c(N)ncnc32)[C@H](N)[C@@H](O)[C@@H]1O,51 nM,1.5,76 nM,–
Cc1cn(CC(=O)N(CCNC(=O)CN(CCNC(=O)CSCCCCCCSC[C@H]2O[C@@H](O[C@@H]3[C@@H](O)[C@H](N)C[C@H](N)[C@H]3O[C@H]3O[C@H](CN)[C@@H](O)[C@H](O)[C@H]3N)[C@H](O)[C@@H]2O[C@H]2O[C@@H](CN)[C@@H](O)[C@H](O)[C@H]2N)C(=O)Cn2cc(C)c(=O)[nH]c2=O)CC(N)=O)c(=O)[nH]c1=O,130 nM,–,–,–
NC[C@@H]1O[C@H](O[C@H]2[C@@H](O)[C@H](O[C@@H]3[C@@H](O)[C@H](N)C[C@H](N)[C@H]3O[C@H]3O[C@H](CN)[C@@H](O)[C@H](O)[C@H]3N)O[C@@H]2CSCCCCCCSCC(=O)NCCN(CC(=O)NCCN(CC(N)=O)C(=O)Cn2cnc3c(N)ncnc32)C(=O)Cn2cnc3c(O)nc(N)nc32)[C@H](N)[C@@H](O)[C@@H]1O,200 nM,–,–,–
NC[C@@H]1O[C@H](O[C@H]2[C@@H](O)[C@H](O[C@@H]3[C@@H](O)[C@H](N)C[C@H](N)[C@H]3O[C@H]3O[C@H](CN)[C@@H](O)[C@H](O)[C@H]3N)O[C@@H]2CSCCCCCCSCC(=O)NCCN(CC(=O)NCCN(CC(N)=O)C(=O)Cn2cnc3c(O)nc(N)nc32)C(=O)Cn2cnc3c(N)ncnc32)[C@H](N)[C@@H](O)[C@@H]1O,38 nM,4.5,170 nM,–
CC(=O)N(CCNC(=O)CSCCCCCCSC[C@H]1O[C@@H](O[C@@H]2[C@@H](O)[C@H](N)C[C@H](N)[C@H]2O[C@H]2O[C@H](CN)[C@@H](O)[C@H](O)[C@H]2N)[C@H](O)[C@@H]1O[C@H]1O[C@@H](CN)[C@@H](O)[C@H](O)[C@H]1N)CC(=O)NCCN(CC(N)=O)C(=O)Cn1ccc(N)nc1=O,320 nM,–,–,–
